For data set [1], the target named is T1, WRN protein (AA N517-P1238, ICE, Cat. S2212T-H56HZ) (Homo sapiens, UniProt Q14191).
T1 construct: WRN protein (AA N517-P1238, ICE, Cat. S2212T-H56HZ); purchased ICE S2212T-H56HZ
Kind of data set: Assay for WRN helicase activity (FORKF dsDNA unwinding, fluorescence). The class given is biochemical. To be noted: inhibition of WRN helicase activity; 10 nM WRN, 10 nM FORKF, 2 mM ATP. The procedure:
The assay buffer working solution prepared with RNAase-free water was as follows: 25 mM Tris (pH 7.5), 2 mM MgCl2, 50 mM NaCl, 0.02% BSA, 0.01% Tween, and 1 mM DTT. WRN protein (AA N517-P1238, ICE, Cat. S2212T-H56HZ) was obtained through protein expression and purification in vitro. Two single-stranded DNAs were synthesized: […]-BHQ2 (quencher), and (fluorophore) TAMRA-[…]. dsDNA (FORKF) was obtained via annealing of the two single-stranded DNAs. When the WRN protein bound to FORKF, the dsDNA was unwound, exposing the fluorophore, thereby generating fluorescence. 2 µL of compounds at different concentrations and 4 µL of WRN protein were added to a 384-well black plate (Greiner, Cat#784075). The plate was pre-incubated at room temperature for 20 minutes. 2 µL each of ATP and the FORKF substrate were added. The working concentrations of the WRN protein, FORKF, and ATP were 10 nM, 10 nM, and 2 mM, respectively. The plate was incubated at room temperature for 20 minutes. After the incubation was completed, the fluorescence value was read at Ex 540 nm/Em 590 nm using a BMG microplate reader (PHERAstar FSX).
The inhibition rate was calculated according to Formula 2, where RLUsample is the readout of the compound well, RLUmax is the readout of the DMSO control well, and RLUmin is the readout of the control well without the WRN protein. Curve fitting was performed via a four-parameter logistic model using GraphPad Prism software, and the IC50 value (the concentration of the compound when the inhibition rate was 50%) was calculated. Inhibition% = (1−(RLUsample−RLUmin)/(RLUmax−RLUmin)) × 100% [formula] Table 2. Results of inhibitory activity of test compounds against WRN helicase activity

Another data set relates to SW48 cells. Nature of the data set: SW48 cell proliferation inhibition assay (CellTiter-Glo). The class given is cell-based. To be noted: Homo sapiens, 96 h, 4 days, read-out: Inhibitory activity against SW48 cell proliferation IC50. The procedure: (§1) The culture conditions for SW48 cells were as follows: Leibovitz L15 + 10% FBS + 1% penicillin-streptomycin, and the cells were cultured in an incubator without CO2 at 37°C. On the first day, the SW48 cells in the exponential growth phase were collected and plated in 96-well cell culture plates at a density of 1000 cells/well (180 µL/well). The plates were cultured overnight in an incubator without CO2 at 37°C. T0 wells were plated simultaneously during the plating process. The next day, 20 µL of compounds at different concentrations were added to each well (nine compound concentration gradients, one DMSO well, and one blank well; each compound concentration was plated in triplicate), and the final concentration of DMSO in each well was 0.1%. The plates were cultured in an incubator without CO2 at 37°C for 4 days. On the same day of compound addition, the T0 plate was detected using the CellTiter-Glo Kit, and the detected value was recorded as RLU0. After the culture was completed, 100 µL of detection solution (Cell Viability Assay, Promega) was added to each well. The plates were incubated at room temperature for 10 minutes with slow shaking. The chemiluminescence reading was read using a BMG microplate reader (PHERAstar FSX). The results were processed according to Formula (5) to calculate the proliferation inhibition rate of compounds at each concentration. Curve fitting was performed via a four-parameter logistic model using GraphPad Prism software, and the GI50 value (the concentration of the compound when the proliferation inhibition rate was 50%) was calculated. In the formula, RLUcompound is the readout of the drug-treated group, RLUcontrol is the average value of the compound vehicle control group, and RLUBlank is the average value of the blank control group. [formula] Table 3. Results of inhibitory activity of test compounds against cell proliferation

The next data set deals with HT-29 cells. Nature of the data set: HT-29 cell proliferation inhibition assay (CellTiter-Glo). In kind it is cell-based. To be noted: Homo sapiens, 96 h, 4 days, read-out: Inhibitory activity against HT-29 cell proliferation IC50. The procedure: as §1, with “HT-29” for “SW48”, “DMEM” for “Leibovitz L15”, “with 5%” for “without”, “(4)” for “(5)”, “[formula]” for “[formula] Table 3. Results of inhibitory activity of test compounds against cell proliferation”
On the technique in general: Cellular ATP, detected with luciferase, serves as a proxy for viable cell number.

The target of data set [2] is T2, WRN protein (AA N517-P1238, ICE) (Homo sapiens, UniProt Q14191).
T2 construct: WRN protein (AA N517-P1238, ICE); purchased ICE
T2 sequence (Q14191 517-1238): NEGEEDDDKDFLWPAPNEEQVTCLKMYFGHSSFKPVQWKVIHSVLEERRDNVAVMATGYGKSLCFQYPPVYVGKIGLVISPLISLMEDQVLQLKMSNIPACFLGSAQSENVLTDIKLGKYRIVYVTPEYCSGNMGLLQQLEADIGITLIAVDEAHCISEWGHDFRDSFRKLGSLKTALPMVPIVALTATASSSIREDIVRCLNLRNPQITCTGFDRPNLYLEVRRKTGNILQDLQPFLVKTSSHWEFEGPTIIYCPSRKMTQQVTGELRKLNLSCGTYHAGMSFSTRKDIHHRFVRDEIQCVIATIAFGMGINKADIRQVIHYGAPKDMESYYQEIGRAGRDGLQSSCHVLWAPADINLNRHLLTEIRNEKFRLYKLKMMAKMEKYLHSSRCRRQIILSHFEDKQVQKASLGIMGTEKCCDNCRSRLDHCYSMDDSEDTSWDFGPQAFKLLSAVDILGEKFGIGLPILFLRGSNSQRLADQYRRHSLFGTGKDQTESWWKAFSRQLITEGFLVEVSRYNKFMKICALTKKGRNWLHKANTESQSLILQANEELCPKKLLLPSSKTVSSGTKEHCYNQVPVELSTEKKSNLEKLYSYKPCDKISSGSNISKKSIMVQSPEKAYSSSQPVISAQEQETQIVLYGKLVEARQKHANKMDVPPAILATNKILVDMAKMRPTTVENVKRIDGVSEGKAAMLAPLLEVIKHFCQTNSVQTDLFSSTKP
Kind of data set: Assay for ATPase activity of WRN helicase (ADP-Glo). The class given is biochemical. Conditions: inhibition of ATPase activity of WRN helicase; 0.3 nM WRN, 0.2 nM DNA substrate, 10 µM ATP. The procedure:
The assay buffer working solution was as follows: 30 mM Tris pH 7.5 + 0.02% BSA + 2 mM MgCl2 + 50 mM NaCl + 0.1% Pluronic® F127 + 1 mM DTT. WRN protein (AA N517-P1238, ICE) was obtained through protein expression and purification in vitro. A single-stranded DNA substrate ([…]) was synthesized in vitro. 1 µL each of compounds at different concentrations, the WRN protein, and the DNA substrate, together with 2 µL of ATP, were added to a 384-well white plate. The working concentrations of the WRN protein, the DNA substrate, and the ATP were 0.3 nM, 0.2 nM, and 10 µM, respectively. The plate was incubated at room temperature for 20 minutes. After the incubation was completed, the detection was performed in accordance with the instructions of the ADP-Glo Assay Kit (Promega), and the chemiluminescence value was read.
The inhibition rate was calculated according to Formula 1, where RLUsample is the readout of the compound well, RLUmax is the readout of the DMSO control well, and RLUmin is the readout of the control well without the WRN protein. Curve fitting was performed via a four-parameter logistic model (log(inhibitor) vs. response -- Variable slope) using GraphPad Prism software, and the IC50 value was calculated. Inhibition% = (1−(RLUsample−RLUmin)/(RLUmax−RLUmin)) × 100% [formula] Table 1. Results of inhibitory activity of test compounds against ATPase activity of WRN helicase
A general note: In ADP-Glo the light output rises with the ADP produced.

A short description of data set [3]: Mouse pharmacokinetic assay. To be noted: po, mouse plasma, i.g. (10 mg/kg). In kind it is in vivo, Balb/c mice. The procedure: 4.1. Experimental animals: Male Balb/c mice, about 22 g, 6-8 weeks old, 6 mice/compound. The animals were purchased from CHENGDU DOSSY EXPERIMENTAL ANIMALS CO., LTD.
4.2. Experimental design: On the day of the experiment, the Balb/c mice were randomly grouped according to their body weights. The animals were fasted with water available for 12-14 h one day before the administration, and were fed 4 h after the administration. Table 4. Administration information
Vehicle for intravenous administration: 5% DMA + 5% Solutol + 90% Saline; and vehicle for intragastric administration: 5% DMSO + 95% (20% SBE-β-CD in Saline)
Before and after the administration, 0.03 ml of blood was taken from the orbit under isoflurane anesthesia and placed in an EDTAK2 centrifuge tube. The tube was centrifuged at 5000 rpm at 4°C for 10 min, and plasma was collected. The blood collection time points for the intravenous administration group and intragastric administration group were as follows: 0, 2 min, 5 min, 15 min, 30 min, 1 h, 2 h, 4 h, and 7 h. Before analysis and detection, all samples were stored at - 80°C. Table 5. Pharmacokinetic parameters of test compounds in mouse plasma

A short description of data set [4]: Beagle dog pharmacokinetic assay. The class given is in vivo, Beagle dogs. Conditions: male, po; Beagle dog plasma, i.g. (3 mg/kg). The procedure:
7.1. Experimental animals: Male Beagle dogs, about 8-13 kg, 6 Beagle dogs/compound.
7.2. Experimental method: On the day of the experiment, the Beagle dogs were randomly grouped according to their body weights. The animals were fasted with water available for 14-18 h one day before the administration, and were fed 4 h after the administration. The animals were administered according to Table 6. Table 6. Administration information
Note: Vehicle for intravenous administration: 5% DMA + 5% Solutol + 90% Saline; and vehicle for intragastric administration: 5% DMSO + 95% (20% SBE-β-CD in Saline) (DMA: dimethylacetamide; Solutol: polyethylene glycol-15-hydroxystearate; Saline: normal saline; and MC: methylcellulose)
Before and after the administration, 1 ml of blood was taken from the jugular veins or limb veins and placed in an EDTAK2 centrifuge tube. The tube was centrifuged at 5000 rpm at 4°C for 10 min, and plasma was collected. The blood collection time points for the intravenous administration group and intragastric administration group were as follows: 0, 5 min, 15 min, 30 min, 1 h, 2 h, 4 h, 6 h, 8 h, 10 h, 12 h, 24 h, and 48 h. Before analysis and detection, all samples were stored at -80°C. The samples were analyzed quantitatively by LC-MS/MS. Table 7. Pharmacokinetic parameters of test compounds in Beagle dog plasma

The values below come from EP4755890A1, “OXO-TRICYCLIC DERIVATIVE AND PHARMACEUTICAL USE THEREOF” (Haisco Pharmaceutical Group Co., Ltd., priority 2023, dated 2025).

Some results are limits rather than exact numbers.

T1 sequence (Q14191 517-1238, stated change not applied): as the sequence (Q14191 517-1238) above

`[2H]C1([2H])N(C(=O)c2ncnc(C)c2O)C([2H])([2H])C([2H])([2H])N(c2c3n(c4nc(C5=CCOCC5)nn4c2=O)C(C(=O)Nc2ccc(C(F)(F)F)cc2Cl)CCC3)C1([2H])[2H]` (single isomer, unassigned) [Compound 7-B]: the IC50 in data set [1] was less than 20 nM; with SW48 cells it was less than 100 nM.

Regarding `Cc1ncnc(C(=O)N2CCN(c3c4n(c5nc(C6=CCOCC6)nn5c3=O)C(C(=O)Nc3ccc(C(F)(F)F)cc3F)CCC4)CC2)c1O` (single isomer, unassigned) [Compound 15-B], the IC50 in data set [1] is less than 20 nM.

With `Cc1ncnc(C(=O)N2CCN(c3c4n(c5nc(C6=CCOCC6)nn5c3=O)C(C(=O)Nc3ccc(C(F)(F)F)cc3Cl)CCC4)[C@@H](C)C2)c1O` (single isomer, unassigned) [Compound 26-A], the IC50 in data set [1] was less than 20 nM; in the data set with SW48 cells, less than 100 nM; with HT-29 cells, no less than 10000 nM.

For the molecule `O=C(Nc1ccc(C(F)(F)F)cc1Cl)C1CCCc2c(N3CCN(C(=O)c4ncccc4O)CC3)c(=O)n3nc(C4=CCOCC4)nc3n21` (single isomer, unassigned) [Compound 2-B], the IC50 in data set [2] was less than 20 nM; in data set [1], less than 20 nM; with SW48 cells, less than 100 nM.

Consider `Cc1cc(C(F)(F)F)ccc1NC(=O)C1CCCc2c(N3CCN(C(=O)c4ncnc(C)c4O)CC3)c(=O)n3nc(C4=CCOCC4)nc3n21` (single isomer, unassigned) [Compound 5-B], for which the IC50 in data set [1] is less than 20 nM.

Turning to `Cc1ncnc(C(=O)N2CCN(c3c4n(c5nc(C6=CCOCC6)nn5c3=O)C(C(=O)Nc3ccc(C(F)(F)F)nc3Cl)CCC4)CC2)c1O` (single isomer, unassigned) [Compound 3-B], in data set [1], the IC50 was less than 20 nM.

The AUC(0-t) is the area under the concentration-time curve up to a stated or last time point. A low value points to less exposure. As usually defined, the half-life is the time in which the quantity being followed falls by half. A higher half-life goes with slow loss. In data set [3] (male, Balb/c), `CCc1c(N2CCN(C(=O)c3ncnc(C)c3O)CC2)c(=O)n2nc(C3=CCOCC3)nc2n1CC(=O)Nc1ccc(C(F)(F)F)cc1Cl` [HRO761, reference compound] showed an AUC(0-t) of 9210 ng·h/mL and a half-life of 2.32 h. For the same molecule, in data set [3] (male, Balb/c, read-out: F (%)), the bioavailability came out at 74.1%. Also, the AUC(0-t) in data set [4] came to 10800 ng·h/mL.

For the molecule `Cc1ncnc(C(=O)N2CCN(c3c4n(c5nc(C6=CCOCC6)nn5c3=O)C(C(=O)Nc3ccc(C(F)(F)F)c5c3CCC5)CCC4)CC2)c1O` (racemic) [Compound 28], in data set [1], the IC50 was less than 20 nM.

In data set [3] (in vivo), `Cc1ncnc(C(=O)N2CC3(CCN(c4c5n(c6nc(C7=CCOCC7)nn6c4=O)C(C(=O)Nc4ccc(C(F)(F)F)cc4Cl)CCC5)CC3)C2)c1O` (single isomer, unassigned) [Compound 14-B] showed an AUC(0-t) of 24200 ng·h/mL and a half-life of 5.41 h.

`Cc1ncnc(C(=O)N2CCN(c3c4n(c5nc(C6=CCOCC6)nn5c3=O)C(C(=O)Nc3ccc(C(F)(F)F)cc3Cl)CC4)CC2)c1O` (single isomer, unassigned) [Compound 6-B] yielded an IC50 in data set [1] of less than 20 nM.

Consider `Cc1ncnc(C(=O)N2CCN(c3c4n(c5nc(C6=CCOCC6)nn5c3=O)C(C(=O)Nc3ccc(C(F)(F)F)cc3Cl)CCC4)CC2)c1O` (racemic) [Compound 1], for which the IC50 in data set [1] was 20 to 100 nM; with SW48 cells it was less than 100 nM.
